A value given as a limit tells only on which side of the number the result lay.

human PDE10, sequence (Q9Y233 whole entry): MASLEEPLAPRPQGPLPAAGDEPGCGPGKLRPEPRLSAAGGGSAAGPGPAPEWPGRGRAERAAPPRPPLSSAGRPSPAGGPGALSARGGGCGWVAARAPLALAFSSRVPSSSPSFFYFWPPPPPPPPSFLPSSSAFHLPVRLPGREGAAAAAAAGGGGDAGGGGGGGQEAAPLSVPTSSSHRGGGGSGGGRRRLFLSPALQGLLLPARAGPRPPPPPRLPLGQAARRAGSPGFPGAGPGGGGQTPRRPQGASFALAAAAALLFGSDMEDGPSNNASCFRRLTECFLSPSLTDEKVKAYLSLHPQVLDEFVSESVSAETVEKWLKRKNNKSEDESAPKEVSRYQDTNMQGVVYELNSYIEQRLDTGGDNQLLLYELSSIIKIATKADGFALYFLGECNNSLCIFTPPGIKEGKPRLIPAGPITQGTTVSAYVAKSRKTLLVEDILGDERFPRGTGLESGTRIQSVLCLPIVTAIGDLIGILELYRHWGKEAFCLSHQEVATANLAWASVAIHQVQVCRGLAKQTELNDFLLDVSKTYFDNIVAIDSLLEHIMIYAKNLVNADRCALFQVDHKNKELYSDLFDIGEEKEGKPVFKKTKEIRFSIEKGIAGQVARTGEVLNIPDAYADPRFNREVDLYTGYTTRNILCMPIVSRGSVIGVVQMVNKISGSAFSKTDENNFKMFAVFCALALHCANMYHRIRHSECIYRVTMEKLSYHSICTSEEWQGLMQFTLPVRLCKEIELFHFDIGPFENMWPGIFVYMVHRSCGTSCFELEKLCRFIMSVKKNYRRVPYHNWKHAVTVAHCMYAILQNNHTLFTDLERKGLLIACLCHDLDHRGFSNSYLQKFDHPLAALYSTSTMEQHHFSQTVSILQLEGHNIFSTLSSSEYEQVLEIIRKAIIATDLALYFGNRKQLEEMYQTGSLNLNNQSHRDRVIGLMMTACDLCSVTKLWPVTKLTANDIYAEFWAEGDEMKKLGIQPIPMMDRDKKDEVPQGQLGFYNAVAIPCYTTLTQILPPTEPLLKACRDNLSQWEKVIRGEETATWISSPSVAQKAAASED

The assay concerns the target human PDE10 (Homo sapiens (Human), UniProt Q9Y233). The experiment in a line: Evaluation of enzyme inhibitory activity: human PDE10 inhibitory effect (IMAP TR-FRET). It counts as biochemical. Particulars: cAMP substrate. In outline:
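IMAP TR-FRET assay: PDE10 (diluted to 2 ng/mL) was preincubated 5 min with compound in Tris pH 7.2, 10 mM MgCl2, 0.1% BSA, then reacted 60 min at room temperature with cAMP (diluted to 400 nM). 5′-AMP was read as 520/490 nm TR-FRET (ex 340 nm) after ≥3 h binding; IC50 was referenced to solvent (0%) and no-enzyme (100%) wells.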
For `COc1ccnc(-c2cnn(C)c2C(=O)Nc2ccn3nc(N4CC[C@H](F)C4)nc3c2)c1` [Example 4.18, (S)-N-(2-(3-fluoropyrrolidin-1-yl)-[1,2,4]triazolo[1,5-a]pyridin-7-yl)-4-(4-methoxypyridin-2-yl)-1-methyl-1H-pyrazole-5-carboxamide], the IC50 is less than 5 nM. In the case of `Cc1cncc(-c2cnn(C)c2C(=O)Nc2ccn3nc(N4CC[C@H](F)C4)nc3c2)n1` [Example 4.19, (S)-N-(2-(3-fluoropyrrolidin-1-yl)-[1,2,4]triazolo[1,5-a]pyridin-7-yl)-1-methyl-4-(6-methylpyrazin-2-yl)-1H-pyrazole-5-carboxamide] it was less than 5 nM; in that of `Cc1cccc(-c2cnn(C)c2C(=O)Nc2ccn3nc(N4CC[C@H](F)C4)nc3c2)n1` [Example 4.21, (S)-N-(2-(3-fluoropyrrolidin-1-yl)-[1,2,4]triazolo[1,5-a]pyridin-7-yl)-1-methyl-4-(6-methylpyridin-2-yl)-1H-pyrazole-5-carboxamide], less than 5 nM. For the compound `Cn1ncc(-c2nc(C(F)(F)F)cs2)c1C(=O)Nc1ccn2nc(N3CC[C@H](F)C3)nc2c1` [Example 4.22, (S)-N-(2-(3-fluoropyrrolidin-1-yl)-[1,2,4]triazolo[1,5-a]pyridin-7-yl)-1-methyl-4-(4-(trifluoromethyl)thiazol-2-yl)-1H-pyrazole-5-carboxamide], the IC50 is less than 5 nM. `Cc1sc(-c2cnn(C)c2C(=O)Nc2ccn3nc(N4CC[C@H](F)C4)nc3c2)nc1C(F)F` [Example 4.23, (S)-4-(4-(difluoromethyl)-5-methylthiazol-2-yl)-N-(2-(3-fluoropyrrolidin-1-yl)-[1,2,4]triazolo[1,5-a]pyridin-7-yl)-1-methyl-1H-pyrazole-5-carboxamide] displayed an IC50 of less than 5 nM. In the case of `Cc1cc(C)nc(-c2cnn(C)c2C(=O)Nc2cc3nc(N4CC[C@H](F)C4)nn3cc2F)c1` [Example 4.24, (S)-4-(4,6dimethylpyridin-2-yl)-N-(6-fluoro-2-(3-fluoropyrrolidin-1-yl)-[1,2,4]triazolo[1,5-a]pyridin-7-yl)-1-methyl-1H-pyrazole-5-carboxamide] it was less than 5 nM. `Cn1ncc(-c2nc(C(F)F)cs2)c1C(=O)Nc1ccn2nc(N3CCCC3)nc2c1` [Example 4.25, 4-(4-(difluoromethyl)thiazol-2-yl)-1-methyl-N-(2-(pyrrolidin-1-yl)-[1,2,4]triazolo[1,5-a]pyridin-7-yl)-1H-pyrazole-5-carboxamide] showed an IC50 of less than 5 nM.

Regarding `Cn1ncc(-c2nc(C(F)F)c(Cl)s2)c1C(=O)Nc1ccn2nc(N3CCCC3)nc2c1` [Example 4.26, 4-(5-chloro-4-(difluoromethyl)thiazol-2-yl)-1-methyl-N-(2-(pyrrolidin-1-yl)-[1,2,4]triazolo[1,5-a]pyridin-7-yl)-1H-pyrazole-5-carboxamide], the IC50 was less than 5 nM.

`Cn1ncc(-c2cccc(C(F)(F)F)n2)c1C(=O)Nc1ccn2nc(N3CCCC3)nc2c1` [Example 4.27, 1-methyl-N-(2-(pyrrolidin-1-yl)-[1,2,4]triazolo[1,5-a]pyridin-7-yl)-4-(6-(trifluoromethyl)pyridin-2-yl)-1H-pyrazole-5-carboxamide] came in with a 50% inhibitory concentration (IC50) of less than 5 nM. In the case of `COc1ccnc(-c2cnn(C)c2C(=O)Nc2ccn3nc(N4CCCC4)nc3c2)c1` [Example 4.28, 4-(4-methoxypyridin-2-yl)-1-methyl-N-(2-(pyrrolidin-1-yl)-[1,2,4]triazolo[1,5-a]pyridin-7-yl)-1H-pyrazole-5-carboxamide] it was less than 5 nM. `Cc1cncc(-c2cnn(C)c2C(=O)Nc2ccn3nc(N4CCCC4)nc3c2)n1` [Example 4.29, 1-methyl-4-(6-methylpyrazin-2-yl)-N-(2-(pyrrolidin-1-yl)-[1,2,4]triazolo[1,5-a]pyridin-7-yl)-1H-pyrazole-5-carboxamide] came in with an IC50 of less than 5 nM. To `Cc1cccc(-c2cnn(C)c2C(=O)Nc2ccn3nc(N4CCCC4)nc3c2)n1` [Example 4.31, 1-methyl-4-(6-methylpyridin-2-yl)-N-(2-(pyrrolidin-1-yl)-[1,2,4]triazolo[1,5-a]pyridin-7-yl)-1H-pyrazole-5-carboxamide] belongs less than 5 nM; to `Cc1cc(C)nc(-c2cnn(C)c2C(=O)Nc2ccn3nc(N4CCCC4)nc3c2)c1` [Example 4.32, 4-(4,6-dimethylpyridin-2-yl)-1-methyl-N-(2-(pyrrolidin-1-yl)-[1,2,4]triazolo[1,5-a]pyridin-7-yl)-1H-pyrazole-5-carboxamide], less than 5 nM.

The compound `Cc1sc(-c2cnn(C)c2C(=O)Nc2ccn3nc(N4CCCC4)nc3c2)nc1C(F)F` [Example 4.33, 4-(4-(difluoromethyl)-5-methylthiazol-2-yl)-1-methyl-N-(2-(pyrrolidin-1-yl)-[1,2,4]triazolo[1,5-a]pyridin-7-yl)-1H-pyrazole-5-carboxamide] yielded an IC50 of less than 5 nM.

In turn, `Cn1ncc(-c2nc(C(F)(F)F)cs2)c1C(=O)Nc1ccn2nc(N3CCCC3)nc2c1` [Example 4.34, 1-methyl-N-(2-(pyrrolidin-1-yl)-[1,2,4]triazolo[1,5-a]pyridin-7-yl)-4-(4-(trifluoromethyl)thiazol-2-yl)-1H-pyrazole-5-carboxamide] showed an IC50 of less than 5 nM. `Cc1ncc(C)c(-c2cnn(C)c2C(=O)Nc2cc3nc(N4CCCC4)nn3cc2F)n1` [Example 4.35, 4-(2,5-dimethylpyrimidin-4-yl)-N-(6-fluoro-2-(pyrrolidin-1-yl)-[1,2,4]triazolo[1,5-a]pyridin-7-yl)-1-methyl-1H-pyrazole-5-carboxamide] gave an IC50 of less than 5 nM. As to `C=Cc1sc(-c2cnn(C)c2C(=O)NC2CCn3nc(-c4ccccc4)nc3C2)nc1C(F)F` (stereo not shown) [Example 5.5, 4-(4-(difluoromethyl)-5-vinylthiazol-2-yl)-1-methyl-N-(2-phenyl-5,6,7,8-tetrahydro-[1,2,4]triazolo[1,5-a]pyridin-7-yl)-1H-pyrazole-5-carboxamide], the IC50 was less than 5 nM.

As to `CCc1sc(-c2cnn(C)c2C(=O)NC2CCn3nc(-c4ccccc4)nc3C2)nc1C(F)F` (stereo not shown) [Example 5.6, 4-(4-(difluoromethyl)-5-ethylthiazol-2-yl)-1-methyl-N-(2-phenyl-5,6,7,8-tetrahydro-[1,2,4]triazolo[1,5-a]pyridin-7-yl)-1H-pyrazole-5-carboxamide], the IC50 was less than 5 nM. In the case of `Cc1nc(-c2cnn(C)c2C(=O)NC2CCn3nc(-c4ccccc4)nc3C2)sc1Br` (stereo not shown) [Example 5.7, 4-(5-bromo-4-methylthiazol-2-yl)-1-methyl-N-(2-phenyl-5,6,7,8-tetrahydro-[1,2,4]triazolo[1,5-a]pyridin-7-yl)-1H-pyrazole-5-carboxamide] it was less than 5 nM; in that of `Cn1ncc(-c2nc(C(F)F)cs2)c1C(=O)NC1CCn2nc(-c3ccccc3)nc2C1` (stereo not shown) [Example 5.17, 4-(4-(difluoromethyl)thiazol-2-yl)-1-methyl-N-(2-phenyl-5,6,7,8-tetrahydro-[1,2,4]triazolo[1,5-a]pyridin-7-yl)-1H-pyrazole-5-carboxamide], less than 5 nM. In the case of `Cn1ncc(-c2nc(C(F)F)c(Cl)s2)c1C(=O)NC1CCn2nc(-c3ccccc3)nc2C1` (stereo not shown) [Example 5.29, 4-(5-chloro-4-(difluoromethyl)thiazol-2-yl)-1-methyl-N-(2-phenyl-5,6,7,8-tetrahydro-[1,2,4]triazolo[1,5-a]pyridin-7-yl)-1H-pyrazole-5-carboxamide] it was less than 5 nM; in that of `COc1ccccc1-c1nc2n(n1)CCC(NC(=O)c1c(-c3nc(C(F)F)cs3)cnn1C)C2` (stereo not shown) [Example 5.34, 4-(4-(difluoromethyl)thiazol-2-yl)-N-(2-(2-methoxyphenyl)-5,6,7,8-tetrahydro-[1,2,4]triazolo[1,5-a]pyridin-7-yl)-1-methyl-1H-pyrazole-5-carboxamide], less than 5 nM.

Compound `Cc1sc(-c2cnn(C)c2C(=O)NC2CCn3nc(-c4ccc(F)cc4)nc3C2)nc1C(F)F` (stereo not shown) [Example 5.36, 4-(4-(difluoromethyl)-5-methylthiazol-2-yl)-N-(2-(4-fluorophenyl)-5,6,7,8-tetrahydro-[1,2,4]triazolo[1,5-a]pyridin-7-yl)-1-methyl-1H-pyrazole-5-carboxamide] had an IC50 of less than 5 nM. In the case of `Cc1nc(-c2cnn(C)c2C(=O)NC2CCn3nc(N4CCCC4)nc3C2)sc1C` (stereo not shown) [Example 5.45, 4-(4,5-dimethylthiazol-2-yl)-1-methyl-N-(2-(pyrrolidin-1-yl)-5,6,7,8-tetrahydro-[1,2,4]triazolo[1,5-a]pyridin-7-yl)-1H-pyrazole-5-carboxamide] it was less than 5 nM; in that of “(R)-N-(6-fluoro-2-(2trifluoromethyl)pyrrolidin-1-yl)-[1,2,4]triazolo[1,5-a]pyridin-7-yl)-1-methyl-4-(6-methylpyridin-2-yl)-1H-pyrazole-5-carboxamide [Example 4.11]”, less than 5 nM.

The values above are taken from patent US9777000B2, “Pyrazole derivative” (MOCHIDA PHARMACEUTICAL CO., LTD., priority 2013, dated 2017).
